Where “and” joins values, the source holds several entries; their conditions need not be identical. Equal values may be shown once. Entries after “also recorded” stand apart in the source; their conditions may differ.
Assays:
CYP1A1 and 1A2 = assay: Ethoxyresorufin-O-deethylase (EROD) activity in cultured hepatocytes from humanized mice; assay type: cell-based, human; details: humanized mouse liver cells in culture
Protocol: (§1) Cultures of isolated hepatocytes were established and exposed to prototypical inducers of the cytochrome P450 genes. […]. In addition to the mRNA expression levels of human drug metabolism genes, the enzymatic activity of the human CYP1A and 3A family members were measured. Ethoxyresorufin-O-deethylase activity (EROD) is known to be mediated by CYP1A1 and 1A2 in human liver. […] Thus, hepatocytes from repopulated FRG livers were indistinguishable from normal human adult hepatocytes in these standard drug metabolism assays.

[1] = system: human drug metabolism genes; assay: Induction of mRNAs of drug metabolism genes in cultured hepatocytes from humanized mice (real-time PCR); assay type: cell-based; details: cultured hepatocytes from chimeric mice, mRNA
Protocol: as §1

FRG mice [2] = assay: Maintenance of FRG mice on NTBC in drinking water and NTBC withdrawal; assay type: in vivo, mouse
Protocol: To generate an immunodeficient Fah^−/− mouse strain completely lacking T cells, B cells and NK cells, but without a DNA repair defect, Fah^−/−/Rag2^−/−/Il2rg^−/− (FRG) mice were generated. Male Fah^−/−129S4 mice (Grompe et al. Genes Dev. 7:2298-2307, 1993) were crossed with female Rag2^−/−/Il2rg^−/− mice (Taconic). All animals were maintained with drinking water containing 2-(2-nitro-4-trifluoro-methyl-benzoyl)-1,3 cyclohexanedione (NTBC) at a concentration of 1.6 mg/L (Grompe et al. Nat. Genet. 10:453-460, 1995). To confirm the genotypes of each animal, PCR-based genotyping was carried out on 200 ng genomic DNA isolated from toe tissue (Grompe et al. Genes Dev. 7:2298-2307, 1993; Traggiai et al. Science 304:104-107, 2004).

CYP3A4 [3] = assay: Conversion of testosterone to 6-beta-hydroxyltestosterone in cultured hepatocytes from humanized mice; details: cultured hepatocytes from repopulated FRG livers
Excerpt: (§2) The basal expression and induction of human liver specific genes in chimeric mice was examined. […] Primers, obtained from Applied Biosystems, were specific for human CYP1A1 (Hs00153120_m1), CYP1A2 (Hs00167927_m1), CYP3A4 (Hs00430021_m1), CYP3A7 (Hs00426361_a1), CYP2B6 (Hs00167937_g1), CYP2D6 (Hs00164385_a1), Multidrug resistance associated protein MRP2 (Hs00166123_m1), Bile Salt export Pump BSEP, (Hs00184829_m1), CAR (Hs00231959_m1) Albumin (Hs00609411_m1), HNF4α (Hs00230853_m1), Cyclophillin (Hs99999904_m1) and mouse actin (Ma00607939_s1).
Cultures of isolated hepatocytes were established and exposed to prototypical inducers of the cytochrome P450 genes. […] In addition to the mRNA expression levels of human drug metabolism genes, the enzymatic activity of the human CYP1A and 3A family members were measured. Ethoxyresorufin-O-deethylase activity (EROD) is known to be mediated by CYP1A1 and 1A2 in human liver.

CYP3A4 [4] = assay: Induction of CYP3A4 mRNA in hepatocytes from humanized mice (real-time PCR); details: relative to non-induced cultures; FIG. 7B
Excerpt: as §2

FRG mice [5] = assay: Liver repopulation of FRG mice treated with anakinra (blood human albumin by ELISA); assay type: in vivo, mouse; details: for blood level of human albumin, Elisa #1: Experiment #3, serial transplantation
Protocol: Small amounts of blood were collected once a week from the left saphenous vein with a heparinized blood capillary. After 1,000 or 10,000× dilution with Tris-buffered saline, human albumin concentration was measured with the Human Albumin ELISA Quantitation Kit (Bethyl) according to the manufacturer's protocol.
One million human hepatocytes from the same batch were injected intrasplenically into six FRG mice. In three mice, anakinra (2 mg) was administered intraperitoneally during surgery and then once daily for six additional doses (total dose=14 mg over 7 days). One month after transplantation, blood human albumin was measured by ELISA. […] All three anakinra-treated mice had much higher albumin levels (130, 165 and 200 μg/ml).
Additional experiments validated these initial observations. […] Cohorts of genetically identical mice were injected with the same batch of human cells and were either untreated (Con) or treated with anakinra (Ana). Different dosing regimens of anakinra were used and different lengths of administration were tested. High dose anakinra (Hi) was 2 mg/mouse/day and low dose (lo) was 0.4 mg/mouse/day. The drug was injected daily for either 3 days (×3) or 7 days (×7). Blood levels of human albumin were measured by ELISA to ascertain the degree of human repopulation.

O=c1cc(-c2ccccc2)oc2ccc3ccccc3c12 [BNF, beta-naphthoflavone]
EROD activity after prior exposure to inducer (CYP1A1 and 1A2): specifically and robustly induced
pattern of genes induced [1]: as expected from normal human cells

O=C1CCCC(=O)C1C(=O)c1ccc(C(F)(F)F)cc1[N+](=O)[O-] [NTBC, 2-(2-nitro-4-trifluoro-methyl-benzoyl)-1,3 cyclohexanedione]
death after NTBC withdrawal (FRG mice [2]; FRG mice, gradual hepatocellular injury after withdrawal): 4-8 weeks
growth and fertility of FRG mice (FRG mice [2]; NTBC continuously in drinking water, 1.6 mg/L): grew well and were fully fertile

CCC1(c2ccccc2)C(=O)NC(=O)NC1=O [PB, phenobarbital]
conversion of testosterone to 6-beta-hydroxyltestosterone after prior exposure to inducer (CYP3A4 [3]): specifically induced
induction of CYP3A4 mRNA (CYP3A4 [4]): even more striking than at the enzyme level

anakinra: recombinant, non-glycosylated version of human IL-1RA (IL-1 receptor antagonist), 153 amino acids, SEQ ID NO: 21
blood level of human albumin, Elisa #2 (FRG mice [5]; Experiment #1, primary transplantation, high dose (2 mg/mouse/day) x7): 5.6 mg and 4.8 mg
blood level of human albumin, Elisa #1 (FRG mice [5]; Hi (2 mg/mouse/day) x3): 52 μg-Hi x3 and 60 μg-Hi x3
blood level of human albumin, Elisa #1 (FRG mice [5]; Hi (2 mg/mouse/day) x7): 38 μg-Hi x7 and 56 μg-Hi x7
blood human albumin (FRG mice [5]; FRG mice, one million human hepatocytes intrasplenically, anakinra 2 mg i.p. during surgery then once daily for six doses (total 14 mg over 7 days), one month after transplantation): 130 µg/mL and 165 µg/mL and 200 µg/mL
hepatocyte repopulation (in words) (FRG mice [5]; anakinra-treated versus untreated FRG mice): remarkably enhanced; also recorded: consistently had much higher levels of repopulation
enhanced repopulation versus untreated mice (FRG mice [5]; on average, three independent tests of Table 6): approximately 100 fold
percentage of highly humanized FRG mice after transplantation of human hepatocytes (FRG mice [5]; with anakinra treatment versus without): significantly higher
